Data: doi:10.1101/841569v1 (biorxiv, 2019)

What was measured:
Mtb-MenD [1] = target: T1, Mtb-MenD (Mycobacterium tuberculosis, UniProt P9WK11); test: biochemical
Mtb-MenD [2] = target: T1, Mtb-MenD
Mtb-MenD [3] = target: T1, Mtb-MenD; remark: listed apart in the source

T1 sequence (P9WK11 whole entry): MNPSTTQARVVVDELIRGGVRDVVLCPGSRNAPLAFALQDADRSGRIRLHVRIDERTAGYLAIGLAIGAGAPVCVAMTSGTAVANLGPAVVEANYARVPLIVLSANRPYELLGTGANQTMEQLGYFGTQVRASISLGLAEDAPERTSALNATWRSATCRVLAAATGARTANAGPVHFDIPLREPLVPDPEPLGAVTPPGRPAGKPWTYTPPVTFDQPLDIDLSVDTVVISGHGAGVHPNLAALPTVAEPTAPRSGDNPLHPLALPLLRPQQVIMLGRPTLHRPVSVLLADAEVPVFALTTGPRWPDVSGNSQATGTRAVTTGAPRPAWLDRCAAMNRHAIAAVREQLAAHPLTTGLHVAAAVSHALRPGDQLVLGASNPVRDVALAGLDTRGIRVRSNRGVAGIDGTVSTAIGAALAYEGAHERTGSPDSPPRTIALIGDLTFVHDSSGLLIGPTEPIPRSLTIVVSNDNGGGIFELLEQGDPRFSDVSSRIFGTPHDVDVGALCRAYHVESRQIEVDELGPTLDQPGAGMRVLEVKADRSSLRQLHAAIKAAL

Compound | IC50 (Mtb-MenD [1]) | % of non-inhibited activity at 20 μM (Mtb-MenD [2]) | X-ray crystal structure (co-crystallised, 1 mM ThDP) (Mtb-MenD [3])
O=C(O)c1cc(O)c2ccccc2c1O [DHNA] | 53 nM | 24 ± 1% | –
Cc1ncc(C[n+]2csc(CCOP(=O)(O)OP(=O)(O)O)c2C)c(N)n1 [ThDP] | – | – | acofactor (ThDP) bound DHNA complex
